Results on 1 compound are retold here after patent publication US12115166B2, “Corticotropin releasing factor receptor antagonists” (Spruce Biosciences, Inc., priority 2017, dated 2024).

Data set [1] can be described thus: Study 1: single-escalating oral dose pharmacokinetics in healthy adult subjects (fed, and 150 mg fasted). Format: in vivo, human. As to conditions: 50 to 800 mg, fed state; formal test inconclusive. The procedure:
Study 1 was the first-in-human study that investigated the safety, tolerability, and PK of single-escalating doses of Compound 1, given orally, to healthy adult subjects. […] The data from this study were used for the selection of doses for Study 2.
In Study 1, Compound 1 was administered to healthy adult subjects as a single PO dose of 2, 10, 50, 150, 400, or 800 mg in the fed state and 150 mg in the fasted state. Absorption occurred moderately late, achieving peak Cmax between 4 to 6 hours following dosing in the fed state.
When Compound 1 was given in the fed state, median time to reach maximum plasma concentration (Tmax) occurred between 4 and 6 hours.
As part of this single-dose escalation study, a food effect PK investigation was performed to examine Compound 1 exposures in both the fed and fasted states at the 150-mg dose level. A total of 6 subjects were administered 150 mg Compound 1 in each of these 2 dosing groups. Of these 6 subjects, 4 subjects received Compound 1 at the same dose in both fed and fasted states. […] Table 6 provides a summary of the PK parameters at the 150-mg dose level under both fed and fasted state conditions.
PK parameters AUC0-∞ and Cmax were analyzed separately for dose proportionality for Compound 1 from 50 to 800 mg when administered in the fed state. […]

The target in the next data set is T1, CRF1 receptor (Homo sapiens, UniProt P34998).
T1 construct: from tissue; host or cells: living human patients
T1 sequence (P34998 24-415): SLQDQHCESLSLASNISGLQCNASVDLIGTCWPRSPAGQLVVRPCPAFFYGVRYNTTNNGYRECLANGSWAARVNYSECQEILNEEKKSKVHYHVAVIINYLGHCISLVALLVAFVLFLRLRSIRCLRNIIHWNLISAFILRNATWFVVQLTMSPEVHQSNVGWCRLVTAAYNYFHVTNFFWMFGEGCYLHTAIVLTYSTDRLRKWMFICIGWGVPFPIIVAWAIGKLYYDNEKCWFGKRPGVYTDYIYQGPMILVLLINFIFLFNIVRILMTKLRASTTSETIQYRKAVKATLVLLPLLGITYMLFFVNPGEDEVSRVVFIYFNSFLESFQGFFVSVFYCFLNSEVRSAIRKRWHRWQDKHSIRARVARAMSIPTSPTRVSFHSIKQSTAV
The data set is described as follows: Phase 2 study in adults with classic CAH: hormone response (ACTH, 17-OHP, androstenedione). Format: in vivo. As to conditions: CAH patients. The source says:
Cohort A of the Phase 2 Study includes a 6-week, multiple-dose, dose escalation study of Compound 1 for the treatment of adults with classic CAH. After screening, eligible patients will be enrolled into a 6-week treatment period followed by a 4-week washout/safety follow-up period.
This cohort will be conducted in approximately 9 patients, who will receive Compound 1 daily for up to 6 weeks. Compound 1 will be administered as an oral daily dose. Patients will undergo titration of Compound 1 through three escalating dosage strengths at 2-week intervals. […]
Patients in Cohort B will receive study drug at 200 mg BID, with a dose in the morning and a dose in the evening, either with a meal or consumption of a standardized snack. For Cohorts C and D, the dose level and the frequency and timing of dosing will be determined based on interim data from the previous cohorts. […]
Outcome Measures Primary Outcome Measure: • 1. […] To assess the efficacy of Compound 1 in subjects with classic CAH as measured by percent and absolute change in 17-OHP compared to baseline. […] To explore the dose(s) of Compound 1 that cause pharmacodynamics changes in plasma concentrations of ACTH, androstenedione, and testosterone, as measured by the absolute and percent change from baseline by dose. • 4. […]

Regarding `CCC(CC)c1cc(C)nc2c(-c3sc(N4CCOCC4)nc3Cl)c(C)nn12` [Compound 1, 3-(4-Chloro-2-(morpholin-4-yl)thiazol-5-yl)-7-(1-ethylpropyl)-2,5-dimethylpyrazolo(1,5-a)pyrimidine], the “dose proportionality of Cmax” value in data set [1] is “more than dose proportional”. In addition, at CRF1 receptor, the “morning rise in A4” value is “attenuates”.
